In patent US4725578A, “Compounds having therapeutic effect and the preparation thereof” (Tobishi Pharmaceutical Co., Ltd., priority 1986, dated 1988):
Entries after “also recorded” stand apart in the source; their conditions may differ.

Tests used:
P-388 cells = assay: Antineoplastic action against implanted P-388 cells (ip-ip), survival T/C; format: in vivo, CDFl mice; settings: for T/C: P 388 (ip-ip), × 5; for T/C % (Treatment/Control %): Table 6, P388, intraperitoneal
Experimental: To the peritoneal cavity of each group of mice consisting of six CDFl mice per group, 10^6 /0.1 ml of P-388 cells or 10^5 /0.1 ml of L-1210 cells were implanted. […]
In the Table, the symbol T/C % means Treatment/Control %, that is the increase in life when the control is 100. […] This method is used in the screening of U.S. National Cancer Institute.
(§1) In Table 7, the symbol "i.P.-i.P." means that the tumor cells are implanted intraperitoneally and the compounds being tested are also administered intraperitoneally. The symbol "TR" is the therapeutic ratio obtained by dividing the dose which provides a maximum T/C value, by the dose which provides a minimum T/C value.

L-1210 cells = assay: Antineoplastic action against implanted L-1210 cells (ip-ip), survival T/C; format: in vivo, CDFl mice
Experimental: In this animal test, the antineoplastic action against the implanted tumor was examined in lower animals, in vivo, in respect of the compounds according to the present invention, by using CDFl mice.
To the peritoneal cavity of each group of mice consisting of six CDFl mice per group, 10^6 /0.1 ml of P-388 cells or 10^5 /0.1 ml of L-1210 cells were implanted. […] While to the control groups of CDFl mice, P-388 and L-1210 cells were implanted in the same manner and they were bred without administration of the compounds.
(§2) In the Table, the symbol T/C % means Treatment/Control %, that is the increase in life when the control is 100. The values are obtained by implanting tumor cells to groups of mice (or rats), administering the compound being tested in various amounts every 24 hours after the implantation of the tumor cells and then calculating the ratio, the median survival time of the group to which the compound has been administered to the survival of the control, multiplied by a factor of 100. This method is used in the screening of U.S. National Cancer Institute.
as §1

B-16 melanoma = assay: B16 melanoma (ip-ip), survival T/C; format: in vivo, mice
Experimental: as §2, with “Institute. […]” for “Institute.”
as §1

MM2 = MM2 (ip-ip), survival T/C; format: in vivo, mice
Experimental: as §2, with “Institute. […]” for “Institute.”
as §1
The term in Table 7, last column "3/6 60<", means that 3 mice out of 6 mice continue to live more than 60 days after the implantation of the tumor cells.

P 388 = P 388 (ip-iv), survival T/C; format: in vivo, mice
Experimental: as §2
(§3) In Table 9, "iv" and "sc" means that the administration of the compounds is carried out intravenously and the implantation of the tumor cells is carried out subcutaneously.

Yoshida sarcoma [1] = assay: Yoshida sarcoma (ip-ip), survival T/C; format: in vivo
Experimental: as §2

Yoshida sarcoma [2] = assay: Yoshida sarcoma (ip-iv), survival T/C; format: in vivo
Experimental: as §2, §3

Erlich carcinoma = Erlich carcinoma (sc-ip), inhibition; format: in vivo
Lewis Lung Carcinoma = Lewis Lung Carcinoma (sc-ip), inhibition; format: in vivo
MOPC-104E = MOPC-104E (ip-ip), survival T/C; format: in vivo
Experimental: as §2

C-1498 = C-1498 (ip-ip), survival T/C; format: in vivo
Experimental: as §2

[3] = Toxicity test, lethal dose (Litchfield-Wilcoxon); format: in vivo, male 4-weeks CD-1 (ICR) mice; settings: suspension in 0.5% CMC, 7 days observation
Experimental: With respect to the compounds of this invention, the lethal dose was determined as follows.
By using male 4-weeks CD-1 (ICR) mice consisting of 5 to 10 mice per group, the desired amount of each compound of this invention was suspended in 0.5% CMC solution and the resultant suspension was administered to each mouse intraperitoneally or intravenously. Observing the life or death as well as the general symptome during 7 days after the administration of the compounds, the value of LD50 for each compounds was estimated from the lethal population observed on the basis of the Litchfield-Wilcoxon method.

Colon 26 = Colon 26 (ip-ip), survival T/C; format: in vivo
Experimental: as §2

Colon. 38 = Colon. 38 (sc-ip), inhibition; format: in vivo; settings: 4 mg/kg × 11, after 17 days
[4] = Neuropharmacological multidimentional observation (modified Arwin and Smith method); format: in vivo, 4-weeks CD-1 (IRC) mice; settings: intraperitoneal, 1 to 20 mg/kg, observed every 30 minutes for 180 minutes, compared with patterns of known medicines
Experimental: In this test, other pharmacological effects which may be obtained by these compounds were investigated.
Each compound of the invention was intraperitoneally administered to 4-weeks CD-1 (IRC) mice (Nippon Charles Liver K.K.) in the dose of 1 to 20 mg/kg with using mice groups consisting of three mice per group. […] The observation was carried out according to the modified Arwin method and Smith method, i.e., neuropharmacological multidimentional observation method.
Making a comparison between the symptom observed and the pattern of the pharmacological action due to the known medicines, it has been discovered that each compound of the invention has the following pharmacological effect.

Compound: CCCCCC(=O)Oc1ccc2cc1Oc1ccc(cc1)CC1C(=O)N(C)C(C2)C(=O)NC(C)C(=O)NC(C)C(=O)N(C)C(Cc2ccc(OC)cc2)C(=O)NC(C)C(=O)N1C (stereo not drawn) [Ex. 21, caproate of TPC-A]
- T/C (P-388 cells; in combination: Mitomycin 0.5 mg/kg + Ex 21 0.5 mg/kg): 246.8%
- T/C (P-388 cells; in combination: Mitomycin 0.5 mg/kg + Ex 21 5 mg/kg): 270.3%
- T/C % (Treatment/Control %) (P-388 cells; dose 0.05 mg/kg): 133.6%
- T/C % (Treatment/Control %) (P-388 cells; dose 0.5 mg/kg): 143.2%
- T/C % (Treatment/Control %) (P-388 cells; dose 2 mg/kg): 151.6%
- T/C % (Treatment/Control %) (P-388 cells; dose 10 mg/kg): 197.2%
- P388 (i.P. - i.P.) T/C (%) (P-388 cells; Table 7, dose 0.01 mg/kg): 133.7%
- P388 (i.P. - i.P.) T/C (%) (P-388 cells; Table 7, dose 0.1 mg/kg): 135.9%
- P388 (i.P. - i.P.) T/C (%) (P-388 cells; Table 7, dose 2 mg/kg): 152.2%
- L1210 (i.P. - i.P.) T/C (%) (L-1210 cells; Table 7, dose 0.5 mg/kg): 115.6%
- L1210 (i.P. - i.P.) T/C (%) (L-1210 cells; Table 7, dose 2 mg/kg): 126.6%
- L1210 (i.P. - i.P.) T/C (%) (L-1210 cells; Table 7, dose 10 mg/kg): 67.3%
- effectiveness against B-16 melanoma (B-16 melanoma; (see Table 7)): effective
- B16 (i.P. - i.P.) T/C (%) (B-16 melanoma; Table 7, dose 0.5 mg/kg): 143.5%
- B16 (i.P. - i.P.) T/C (%) (B-16 melanoma; Table 7, dose 2 mg/kg): 152.0%
- B16 (i.P. - i.P.) T/C (%) (B-16 melanoma; Table 7, dose 5 mg/kg): 165.5%
- effectiveness against MM2 (MM2; (see Table 7)): effective
- mice continuing to live more than 60 days after implantation (60<) (MM2; Table 7, MM2 (i.P. - i.P.), dose 2 mg/kg): 2/6
- MM2 (i.P. - i.P.) T/C (%) (MM2; Table 7, dose 0.5 mg/kg): 112.1%
- MM2 (i.P. - i.P.) T/C (%) (MM2; Table 7, dose 2 mg/kg): 127.3%
- MM2 (i.P. - i.P.) T/C (%) (MM2; Table 7, dose 10 mg/kg): 93.9%
- T/C (P 388; 5.56 mg/kg × 9): 117.2%
- T/C (P 388; 6.94 mg/kg × 9): 120.4%
- T/C (Yoshida sarcoma [1]; 0.1 mg/kg × 5): 167.0%
- T/C (Yoshida sarcoma [1]; 0.5 mg/kg × 5): 200.0%
- T/C (Yoshida sarcoma [1]; 1 mg/kg × 5): 213.3%
- animals living more than 30 days (30<) (Yoshida sarcoma [1]; 1 mg/kg × 5): 2/6
- T/C (Yoshida sarcoma [1]; 2.5 mg/kg × 5): 167.0%
- T/C (Yoshida sarcoma [2]; 0.83 mg/kg × 9): 116.7%
- T/C (Yoshida sarcoma [2]; 1.11 mg/kg × 9): 124.8%
- Inhibition (Erlich carcinoma; 8 mg/kg × 11, after 14 days): 58.5%
- Inhibition (Lewis Lung Carcinoma; 0.5 mg/kg × 25, after 17 days): 24.3%
- T/C (MOPC-104E; 2 mg/kg × 9 times): 120.5%
- T/C (MOPC-104E; 5 mg/kg × 9 times): 136.8%
- T/C (C-1498; 2 mg/kg × 5 days): 110.2%
- T/C (C-1498; 8 mg/kg × 5 days): 122.2%

Compound: COc1ccc(C[C@H]2C(=O)N[C@@H](C)C(=O)N(C)[C@H]3Cc4ccc(cc4)Oc4cc(ccc4OC)C[C@@H](C(=O)N[C@H](C)C(=O)N[C@@H](C)C(=O)N2C)N(C)C3=O)cc1 [Methylether of TPC-A]
- T/C % (Treatment/Control %) (P-388 cells; dose 0.01 mg/kg (printed in the 0.05 column with note "dose, 0.01")): 130.1%
- T/C % (Treatment/Control %) (P-388 cells; dose 0.5 mg/kg): 156.7%
- T/C % (Treatment/Control %) (P-388 cells; dose 2 mg/kg): 164.2%
- T/C % (Treatment/Control %) (P-388 cells; dose 4 mg/kg): 173.6%
- P388 (i.P. - i.P.) T/C (%) (P-388 cells; Table 7, dose 0.01 mg/kg): 130.1%
- P388 (i.P. - i.P.) T/C (%) (P-388 cells; Table 7, dose 0.5 mg/kg): 156.7%
- P388 (i.P. - i.P.) T/C (%) (P-388 cells; Table 7, dose 1 mg/kg): 159.9%
- P388 (i.P. - i.P.) T/C (%) (P-388 cells; Table 7, dose 2 mg/kg): 164.2%
- P388 (i.P. - i.P.) T/C (%) (P-388 cells; Table 7, dose 4 mg/kg): 173.6%
- L1210 (i.P. - i.P.) T/C (%) (L-1210 cells; Table 7, dose 0.01 mg/kg): 105.6%
- L1210 (i.P. - i.P.) T/C (%) (L-1210 cells; Table 7, dose 0.5 mg/kg): 118.6%
- L1210 (i.P. - i.P.) T/C (%) (L-1210 cells; Table 7, dose 1 mg/kg): 120.7%
- L1210 (i.P. - i.P.) T/C (%) (L-1210 cells; Table 7, dose 2 mg/kg): 129.3%
- L1210 (i.P. - i.P.) T/C (%) (L-1210 cells; Table 7, dose 5 mg/kg): 137.3%
- B16 (i.P. - i.P.) T/C (%) (B-16 melanoma; Table 7, dose 0.25 mg/kg): 133.8%
- B16 (i.P. - i.P.) T/C (%) (B-16 melanoma; Table 7, dose 1 mg/kg): 135.3%
- B16 (i.P. - i.P.) T/C (%) (B-16 melanoma; Table 7, dose 2 mg/kg): 139.1%
- B16 (i.P. - i.P.) T/C (%) (B-16 melanoma; Table 7, dose 4 mg/kg): 143.0%
- MM2 (i.P. - i.P.) T/C (%) (MM2; Table 7, dose 0.2 mg/kg): 103.1%
- MM2 (i.P. - i.P.) T/C (%) (MM2; Table 7, dose 1 mg/kg): 103.1%
- MM2 (i.P. - i.P.) T/C (%) (MM2; Table 7, dose 2 mg/kg): 118.4%
- MM2 (i.P. - i.P.) T/C (%) (MM2; Table 7, dose 5 mg/kg): 90.8%
- LD50 and 95% Confidence Limit ([3]; intraperitoneal): 10.0(7.0-14.3) mg/kg
- LD50 and 95% Confidence Limit ([3]; intravenous): 16.5(12.6-21.5) mg/kg
- T/C (P 388; 0.56 mg/kg × 9): 115.7%
- T/C (P 388; 2.22 mg/kg × 9): 160.8%
- T/C (Colon 26; 1 mg/kg × 9): 113.6%
- T/C (Colon 26; 2 mg/kg × 9): 125.0%
- T/C (Colon 26; 4 mg/kg × 9): 125.9%
- Inhibition (Erlich carcinoma; 2 mg/kg × 11, after 14 days): 60.5%
- Inhibition (Lewis Lung Carcinoma; 4 mg/kg × 11, after 17 days): 51.1%
- Inhibition (Colon. 38): 70.1%
- Pharmacological effect estinated [4]: emetic action; also recorded: anorexigenic action
